This is an account of results in US7935335B2, “Strains belonging to the genus Paenibacillus and method of controlling plant disease by using these strains or culture thereof” (Kaken Pharmaceutical Co., Ltd., priority 2004, dated 2011).

SMILES strings stand for the structures. Where a SMILES comes first, the peptide text is derived from it. Bridges are numbered along the chain shown (N, C = ends). The star is where a group is joined. ξ: configuration not given here. Pentadecanoyl(3ξ-OH,15-Gua) = N=C(N)NCCCCCCCCCCCCC(O)CC(=O)*

The subject of data set [1] is parsley cultured cells. Description: Activity of inducing disease resistance: elicitor responsiveness of parsley cultured cells, phytoalexin detection by fluorescence. It is filed as cell-based. Conditions: for Elicitor responsiveness of parsley cultured cells (in words): each compound alone; for Relative fluorescence: 0.5 μM. Here is the method:
The activity of inducing disease resistance in plant of compound 1 and compound 2 according to the present invention was also evaluated according to the method of Siegrist, J. et al. The results are shown in Table 9.
The activity of inducing disease resistance in plant of each of compound 1 and compound 2 was evaluated in the same manner as in Evaluation Example 1 by adopting the method practiced in Evaluation Example 1, i.e., the method in which the elicitor responsiveness of parsley cultured cells was measured by the detection of phytoalexin using fluorescence.
The activity of inducing resistance to plant diseases of each of compound 3 and compound 4 was evaluated in the same manner as in Evaluation Example 1 by adopting the method practiced in Evaluation Example 1, i.e., the method in which the elicitor responsiveness of parsley cultured cells was measured by the detection of phytoalexin using fluorescence.

Data set [2] relates to cucumber bacterial blight bacterium (Pseudomonas syringae pv. lachrymans). As to the kind of experiment: Evaluation Example 2: paper disc test for direct antimicrobial activity against cucumber bacterial blight bacterium. It counts as cell-based. To be noted: tested as 3:2 mixture, 60 + 40 ppm. Here is the method:
That is, cucumber bacterial blight bacterium was mixed with a potato semisynthetic medium (a decoction consisting of 300 g of potato and 1 L of distilled water, calcium nitrate tetrahydrate 0.5 g, disodium hydrogenphosphate dodecahydrate 2 g, peptone 5 g, sucrose 20 g, powdered agar 15 g) maintained at 45° C., in a proportion of 1×10^8 CFU/mL, and the resulting mixture was dispensed in 20 mL aliquots into sterilized Petri dishes. After the solidification of the medium, 50 μL of a solution obtained by dissolving a 3:2 mixture of compounds 1 and 2 in dimethyl sulfoxide to a concentration of 100 μg/mL was infiltrated into a paper disc with a diameter of 8 mm, and then the paper disc was allowed to stand on the medium. After 48 hours of cultivation at 25° C. in the dark, the activity was evaluated on the basis of the presence of an inhibition zone around the periphery

The test system of data set [3] is parsley cultured cells. As to the kind of experiment: Activity of inducing disease resistance: elicitor responsiveness of parsley cultured cells, phytoalexin detection by fluorescence. It counts as cell-based. To be noted: Evaluation Example 1; tested as 3:2 mixture.
In another data set the test system is Gram-negative bacteria. To be noted: patent document 3, non-patent documents 4 and 5; cited from earlier work.
Data set [4] has as its system cucumber bacterial blight bacterium. To be noted: patent document 3; cited from earlier work.
For data set [5], the system named is Fusarium wilt of cucumber fungus. To be noted: patent document 3; cited from earlier work.
A further data set can be described thus: Solubility in solvents. It is filed as physicochemical.
[6] abbreviates: Evaluation Example 6, elicitor treatment No.
The mark [7] stands for this setting: Evaluation Example 6, elicitor treatment Yes.
Where [8] appears, read: Evaluation Example 7, elicitor No.
Setting [9] is: Evaluation Example 7, elicitor Yes.
Where [10] appears, read: in ethyl acetate, chloroform and hexane.
[11] abbreviates: in methanol, butanol, isopropyl alcohol and dimethyl sulfoxide.

As for `CC1NC(=O)C(CCC(N)=O)NC(=O)C(C(C)O)NC(=O)C(C(C)C)NC(=O)C(C(C)C)NC(=O)C(NC(=O)CC(O)CCCCCCCCCCCCNC(=N)N)C(C)OC1=O` (stereo not drawn) [Compound 2, Fusaricidin B] ({Pentadecanoyl(3ξ-OH,15-Gua)}-TVVTQA; ester 1-C; configuration not given here), the “Elicitor responsiveness of parsley cultured cells (in words)” value (“Elicitor responsiveness” below) with parsley cultured cells [1] (Evaluation Example 6) was “improves the elicitor responsiveness”; in the data set on parsley cultured cells [3], “improve the elicitor responsiveness”. For the same molecule, the Relative fluorescence with parsley cultured cells [1] (setting [6]) was 100.7; with parsley cultured cells [1] (setting [7]), 1000. For the same molecule, in data set [2], the “Direct antimicrobial activity against cucumber bacterial blight bacterium (in words)” value is listed as “do not exhibit direct antimicrobial activity”. In addition, the “Antimicrobial activity against Gram-negative bacteria” value with Gram-negative bacteria was “inactive”.

As for `CC1NC(=O)C(CC(N)=O)NC(=O)C(C(C)O)NC(=O)C(C(C)C)NC(=O)C(C(C)C)NC(=O)C(NC(=O)CC(O)CCCCCCCCCCCCNC(=N)N)C(C)OC1=O` (stereo not drawn) [Compound 1, Fusaricidin A] ({Pentadecanoyl(3ξ-OH,15-Gua)}-TVVTNA; ester 1-C; configuration not given here), the “Elicitor responsiveness” value in the data set with parsley cultured cells [1] (Evaluation Example 6) was “improves the elicitor responsiveness”; in the data set with parsley cultured cells [3], “improve the elicitor responsiveness”. For the same molecule, the values for the Relative fluorescence in the data set on parsley cultured cells [1] (setting [6]) and in the data set with parsley cultured cells [1] (setting [7]) were 98.5 and 1000, respectively. Besides, the “Direct antimicrobial activity against cucumber bacterial blight bacterium (in words)” value in data set [2] is “do not exhibit direct antimicrobial activity”. Moreover, the “Antimicrobial activity against Gram-negative bacteria” value with Gram-negative bacteria is “inactive”. The “Antimicrobial activity against cucumber bacterial blight bacterium” value in data set [4] is “inactive”. The “Antimicrobial activity against Fusarium wilt of cucumber fungus” value in data set [5] is on record as “no antimicrobial activity”.

Consider `CC(N)C(=O)OC(C)C1NC(=O)C(C(C)C)NC(=O)C(C(C)C)NC(=O)C(NC(=O)CC(O)CCCCCCCCCCCCNC(=N)N)C(C)OC(=O)C(C)NC(=O)C(CCC(N)=O)NC1=O` (stereo not drawn) [Compound 4] ({Pentadecanoyl(3ξ-OH,15-Gua)}-TVVT(Ala)QA; ester 1-C; configuration not given here), for which the “Elicitor responsiveness” value in the data set with parsley cultured cells [1] (Evaluation Example 7) was “improve the elicitor responsiveness”. The Relative fluorescence came out at 0.7 with parsley cultured cells [1] (setting [8]) and 504.8 in the data set with parsley cultured cells [1] (setting [9]). For the same molecule, the Solubility result is reported as “insoluble” in “Solubility in solvents” (setting [10]) and “readily soluble” in “Solubility in solvents” (setting [11]).

Turning to `CC(N)C(=O)OC(C)C1NC(=O)C(C(C)C)NC(=O)C(C(C)C)NC(=O)C(NC(=O)CC(O)CCCCCCCCCCCCNC(=N)N)C(C)OC(=O)C(C)NC(=O)C(CC(N)=O)NC1=O` (stereo not drawn) [Compound 3] ({Pentadecanoyl(3ξ-OH,15-Gua)}-TVVT(Ala)NA; ester 1-C; configuration not given here), the “Elicitor responsiveness” value in the data set with parsley cultured cells [1] (Evaluation Example 7) was “improve the elicitor responsiveness”. Further, the Relative fluorescence with parsley cultured cells [1] (setting [8]) was determined as 3.1; in the data set on parsley cultured cells [1] (setting [9]), 222.7. Further, the Solubility entry in the data set “Solubility in solvents” (setting [10]) was “insoluble”; in the data set “Solubility in solvents” (setting [11]), “readily soluble”.
